Data reported in patent USRE45173E1, “Inhibitors of CYP 17” (Novartis AG, priority 2009, dated 2014).
Like-named read-outs stand apart in the source and are kept apart here.

Columns and labels:
[1] = biological target: recombinant human CYP17 enzyme (Homo sapiens (Human), UniProt P05093); experiment: Cytochrome P450, 17-20 lyase (CYP17-lyase) assay, tritiated acetic acid release from 17-α-hydroxy pregnenolone [21-3H]; format: biochemical; conditions: human CYP17, substrate 0.25 μM
Outline: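 Membranes of cells expressing human CYP17 incubated 90 min at room temperature with [21-3H]17α-hydroxypregnenolone and 4.2 mM NADPH in 50 mM phosphate pH 7.5. Released tritiated acetic acid separated from steroids by charcoal and counted by scintillation; IC50 from sigmoidal fit of % inhibition.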

rat CYP17 lyase = rat CYP17 lyase (Rattus norvegicus (Rat), UniProt P11715); experiment: rat CYP 17 Lyase model, rat testes microsomes as the source; format: biochemical; conditions: for inhibition at 0.1 µM: 100 nM compound, read-out: rCYP17 Lyase % Inh @ 100 nM; for IC50: rat testes microsomes, substrate 0.5 μM, read-out: Lyase IC 50 nM Human/Rat (Rat)
Chain of rat CYP17 lyase (P11715 whole entry): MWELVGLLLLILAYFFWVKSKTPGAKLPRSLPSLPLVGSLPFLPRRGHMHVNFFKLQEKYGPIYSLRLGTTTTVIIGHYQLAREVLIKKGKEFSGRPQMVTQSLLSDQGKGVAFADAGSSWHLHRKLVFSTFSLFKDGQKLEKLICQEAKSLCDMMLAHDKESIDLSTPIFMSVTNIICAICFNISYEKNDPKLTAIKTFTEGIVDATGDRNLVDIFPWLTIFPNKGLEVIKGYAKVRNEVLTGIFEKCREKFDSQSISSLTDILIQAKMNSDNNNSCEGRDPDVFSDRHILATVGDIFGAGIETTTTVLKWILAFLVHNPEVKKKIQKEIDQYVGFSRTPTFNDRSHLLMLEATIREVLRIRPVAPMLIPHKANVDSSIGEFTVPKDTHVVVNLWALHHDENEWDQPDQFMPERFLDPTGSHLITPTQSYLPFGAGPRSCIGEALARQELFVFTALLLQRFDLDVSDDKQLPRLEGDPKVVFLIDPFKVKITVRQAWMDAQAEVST
Procedure: For routine screening, the assay was set up with 16 μg of enzyme in 50 μL reaction volume. 17α-hydroxy pregnenolone [21-3H] was added to a final concentration of 0.25 μM. NADPH is used at a final concentration of 4.2 mM. Total reaction volume was made up to 50 μL with 50 mM Phosphate buffer pH 7.5. The reaction mixture was incubated at room temperature for 90 minutes with gentle shaking. The reaction was stopped by the addition of 100 μL of buffer. 500 μL of 5% freshly prepared activated charcoal was added to the solution and mixed well by vortexing. The samples were centrifuged at 17568×g for 5 minutes. (14000 rpm). The supernatant was carefully transferred to fresh tube and 1.3 mL of scintillation fluid was added, mixed by vortexing.
The radioactivity was measured in a 1450 MicroBeta TriLux™ scintillation counter from Wallac-Perkin Elmer®, USA. The measurements were carried out in 2.0 mL Eppendorforf™ tubes. Each tube was counted for 1 minute. The amount of tritiated acetic acid released is proportional to the lyase activity. Percent lyase activity in presence of inhibitor was calculated using the formula given below.
[formula] • Sample: Enzyme reaction in presence of inhibitor. • Positive control: Enzyme reaction without inhibitor but containing DMSO at 1% final concentration. • Blank-Contains all reagents except enzyme. % Inhibition=100%−% Lyase activity
For IC50 determination, the % inhibition was plotted as a function of inhibitor concentration. The data was fitted to sigmoidal equation using Graphpad Prism® software IV to generate IC50 values.
For the rat CYP 17 Lyase Model:
The same procedure described above was used but using rat testes microsomes as the source and with a substrate concentration of 0.5 μM.

[2] = read-out: Lyase IC 50 nM Human/Rat (Human)
[3] = read-out: Lyase IC 50 Human/Rat (Human)

Chain of recombinant human CYP17 enzyme (P05093 whole entry): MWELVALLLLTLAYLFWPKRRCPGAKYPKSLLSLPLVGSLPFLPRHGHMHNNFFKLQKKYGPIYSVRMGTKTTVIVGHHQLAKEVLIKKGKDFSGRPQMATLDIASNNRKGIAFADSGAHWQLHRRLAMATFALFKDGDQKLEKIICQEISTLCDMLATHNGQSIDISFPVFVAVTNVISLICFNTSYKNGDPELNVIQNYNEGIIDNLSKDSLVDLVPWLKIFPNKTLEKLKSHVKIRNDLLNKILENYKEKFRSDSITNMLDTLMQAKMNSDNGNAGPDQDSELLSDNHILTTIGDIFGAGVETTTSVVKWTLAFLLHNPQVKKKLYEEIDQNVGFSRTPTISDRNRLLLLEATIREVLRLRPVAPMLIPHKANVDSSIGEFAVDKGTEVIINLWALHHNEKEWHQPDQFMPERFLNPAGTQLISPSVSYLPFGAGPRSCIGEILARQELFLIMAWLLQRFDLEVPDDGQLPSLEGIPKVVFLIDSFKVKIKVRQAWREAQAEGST

Compound	IC50 [1, 2]	inhibition at 0.1 µM (rat CYP17 lyase)	IC50 (rat CYP17 lyase)	IC50 [1, 3]
O=C1N(c2cccnc2)CCN1c1ccc2ccccc2c1 [Example 1A, 1-Naphthalen-2-yl-3-pyridin-3-yl-imidazolidin-2-one]	34 nM	84%	35 nM	
CCn1ccc2cc(N3CCN(c4cccnc4)C3=O)ccc21 [Example 2A, 1-(1-Ethyl-1H-indol-5-yl)-3-pyridin-3-yl-imidazolidin-2-one]		23%		
COc1ccc2cc(N3CCN(c4cccnc4)C3=O)ccc2c1 [Example 3A, 1-(6-Methoxy-naphthalen-2-yl)-3-pyridin-3-O-imidazolidin-2-one]		31%		
CCN1C(=O)CCc2cc(N3CCN(c4cccnc4)C3=O)ccc21 [Example 5A, 1-Ethyl-6-(2-oxo-3-pyridin-3-yl-imidazolidin-1-yl)-3,4-dihydro-1H-quinolin-2-one]		51%		
Cc1c(N2CCN(c3cccnc3)C2=O)sc2ccc(F)cc12 [Example 6A, 1-(5-Fluoro-3-methyl-benzo[b]thiophen-2-yl)-3-pyridin-3-yl-imidazolidin-2-one]		51%	157 nM	
O=C1N(c2cccnc2)CCN1c1ccc2sccc2c1 [Example 7A, 1-Benzo[b]thiophen-5-yl-3-pyridin-3-yl-imidazolidin-2-one]		87%	16 nM	
O=C1N(c2cccnc2)CCN1c1ccc2ncccc2c1 [Example 8A, 1-Pyridin-3-yl-3-quinolin-6-yl-imidazolidin-2-one]		48%		
O=C1N(c2cccnc2)CCCN1c1ccc2ccccc2c1 [Example 10A, 1-Naphthalen-2-yl-3-pyridin-3-yl-tetrahydro-pyrimidin-2-one]		11%		
Cc1cc(Cl)nc2ccc(N3CCN(c4cccnc4)C3=O)cc12 [Example 11A, 1-(2-Chloro-4-methyl-quinolin-6-yl)-3-pyridin-3-yl-imidazolidin-2-one]		59%	97 nM	
O=C1N(c2cccnc2)CCN1c1ccc2c(c1)CC/C2=N\O [Example 12A]		17%		
O=C1N(c2cccnc2)CCCN1c1ccc2sccc2c1 [Example 13A, 1-Benzo[b]thiophen-5-yl-3-pyridin-3-yl-tetrahydro-pyrimidin-2-one]		9%		
CCN1C(=O)CCc2cc(N3CCN(c4cnccc4C)C3=O)ccc21 [Example 17A, 1-Ethyl-6-[3-(4-methyl-pyridin-3-yl)-2-oxo-imidazolidin-1-yl]-3,4-dihydro-1H-quinolin-2-one]		83%	21 nM	
Cc1ccncc1N1CCN(c2ccc(-c3ccccc3)cc2)C1=O [Example 19A, 1-Biphenyl-4-O-3-(4-methyl-pyridin-3-yl)-imidazolidin-2-one]		91%	11 nM	
CCn1c(=O)cc(C)c2cc(N3CCN(c4cnccc4C)C3=O)ccc21 [Example 20A, 1-Ethyl-4-methyl-6-[3-(4-methyl-pyridin-3-yl)-2-oxo-imidazolidin-1-yl]-1-1H-quinolin-2-one]		69%	56 nM	
Cc1ccncc1N1CCN(c2ccc3ccccc3n2)C1=O [Example 23A, 1-(4-Methyl-pyridin-3-yl)-3-quinolin-2-yl-imidazolidin-2-one]		85%	20 nM	
COc1ccc2cc(N3CCN(c4cnccc4C)C3=O)ccc2c1 [Example 25A, 1-(6-Methoxy-naphthalen-2-yl)-3-(4-methyl-pyridin-3-yl)-imidazolidin-2-one]		89%		
O=C1N(c2cncc(C(F)(F)F)c2)CCN1c1ccc2ccccc2c1 [Example 79A, 1-Naphthalen-2-yl-3-(5-trifluoromethyl-pyridin-3-yl)-imidazolidin-2-one]		3.6%		
O=C1N(c2cncc(Cl)c2)CCN1c1ccc2ccccc2c1 [Example 80A]		57%		
O=C1N(c2cncc(F)c2)CCN1c1ccc2ccccc2c1 [Example 81A, 1-(5-Fluoro-pyridin-3-yl)-3-naphthalen-2-yl-imidazolidin-2-one]		82%		
Cc1ccncc1N1CCN(c2cc3c(C)nccc3s2)C1=O [Example 194A]	21 nM			

The remaining lines, values ahead:

IC50 [1, 2]	inhibition at 0.1 µM (rat CYP17 lyase)	IC50 (rat CYP17 lyase)	IC50 [1, 3]	Compound
77 nM	59%			O=C1N(c2cccnc2)CCN1c1ccc2ncsc2c1 [Example 4A, 1-Benzothiazol-6-yl-3-pyridin-3-yl-imidazolidin-2-one]
	18%			O=C1N(c2cccnc2)CCN1c1ccc2scnc2c1 [Example 9A, 1-Benzothiazol-5-yl-3-pyridin-3-yl-imidazolidin-2-one]
17 nM	102%	2 nM		Cc1ccncc1N1CCN(c2ccc3ccccc3c2)C1=O [Example 14A, 1-(4-Methyl-pyridin-3-yl)-3-naphthalen-2-yl-imidazolidin-2-one]
6 nM	94%	5 nM		Cc1ccncc1N1CCN(c2ccc3ncsc3c2)C1=O [Example 16A, 1-Benzothiazol-6-yl-3-(4-methyl-pyridin-3-yl)-imidazolidin-2-one]
76 nM	88%	12 nM		Cc1ccncc1N1CCN(c2ccc(F)cc2)C1=O [Example 18A, 1-(4-Fluoro-phenyl)-3-(4-methyl-pyridin-3-yl)-imidazolidin-2-one]
	98%	5 nM		Cc1ccncc1N1CCN(c2ccc3nc(Cl)cc(C)c3c2)C1=O [Example 21A, 1-(2-Chloro-4-methyl-quinolin-6-yl)-3-(4-methyl-pyridin-3-yl)-imidazolidin-2-one]
	85%	24 nM		Cc1ccncc1N1CCN(c2ccc3[nH]c(=O)cc(C)c3c2)C1=O [Example 22A, 4-Methyl-6-[3-(4-methyl-pyridin-3-yl)-2-oxo-imidazolodin-1yl]1H-quinolin-2-one]
72 nM	98%			Cc1ccncc1N1CCN(c2cnc3ccccc3c2)C1=O [Example 24A, 1-(4-Methyl-pyridin-3-yl)-3-quinolin-3-yl-imidazolidin-2-one]
15 nM	100%			Cc1ccncc1N1CCN(c2cc3ccccc3s2)C1=O [Example 26A, 1-Benzo[b]thiophen-2-yl-3-(4-methyl-pyridin-3-yl)-imidazolidin-2-one]
24 nM	101%			Cc1ccncc1N1CCN(c2ccc3sccc3c2)C1=O [Example 27A, 1-Benzo[b]thiophen-5-yl-3-(4-methyl-pyridin-3-yl)-imidazolidin-2-one]
	76%			Cc1ccncc1N1CCN(c2ccc(F)nc2)C1=O [Example 30A, 1-(6-Fluoro-pyridin-3-yl)-3-(4-methyl-pyridin-3-yl)-imidazolidin-2-one]
	73%			COc1cncc(N2CCN(c3cnccc3C)C2=O)c1 [Example 32A, 1-(5-Methoxy-pyridin-3-yl)-3-(4-methyl-pyridin-3-yl)-imidazolidin-2-one]
			> 10000 nM	CN1CCC(COc2ccncc2N2CCN(c3ccc4ncsc4c3)C2=O)CC1 [Example 184A, 1-Benzothiazol-6-yl-3-[4-(1-methyl-piperidin-4-ylmethoxy)-pyridin-3-yl]-imidazolidin-2-one]
			> 10000 nM	NC(=O)c1ccncc1N1CCN(c2ccc3ncsc3c2)C1=O [Example 185A, 3-(3-Benzothiazol-6-yl-2-oxo-imidazolidin-1-yl)-isonicotinamide]
			> 10000 nM	O=C1N(c2ccc3ncsc3c2)CCN1c1cncc2nccn12 [Example 186A, 1-Benzothiazol-6-yl-3-imidazo[1,2-a]pyrazin-5-yl-imidazolidin-2-one]
			> 10000 nM	O=C1N(c2cnc3[nH]ccc3c2)CCN1c1ccc2ncsc2c1 [Example 187A, 1-Benzothiazol-6-yl-3-(1H-pyrrolo[2,3-b]pyridin-5-yl)-imidazolidin-2-one]
195 nM				Cn1cncc1N1CCN(c2ccc3ncsc3c2)C1=O [Example 188A, 3-Benzothiazol-6-yl-3′-methyl-4,5-dihydro-3H,3′H-[1,4]biimidazolyl-2-one]
89 nM				Cc1ccncc1N1CCN(c2cnsc2)C1=O [Example 190A, 1-Isothiazol-4-yl-3-(4-methyl-pyridin-3-yl)-imidazolidin-2-one]
			> 10000 nM	O=C1N(c2ccc3ncsc3c2)CCN1c1ccccn1 [Example 191A, 1-Benzothiazol-6-yl-3-pyridin-2-yl-imidazolidin-2-one]
	8%			CC(O)c1ccncc1N1CCN(c2ccc3ncsc3c2)C1=O (stereo not shown) [Example 195A, 1-Benzothiazol-6-yl-3-[4-(1-hydroxyethyl)-pyridin-3-yl]-imidazolidin-2-one]
